The source of these data is US20230219904A1 (SYNGENTA CROP PROTECTION AG, priority 2020, published 2023).

Assay type in all cases: in vivo
Holding throughout (conditions): evaluated after 13 days

For assay [1], the system named is Abutilon theophrasti (ABUTH). Briefly: Post-emergence herbicidal glasshouse test (Table B1). Put shortly: (§1)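 Damage is rated 13 days after treatment on a 1–5 scale (5 = 80–100%). Application, usually 500 g/h in acetone/water (50:50) with 0.5% Tween 20, is made one day post-sowing for pre-emergence or eight days for post-emergence; glasshouse at 24/16 °C, 14 h light, 65% humidity.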

Assay [2] concerns Amaranthus retoflexus (AMARE). Described as above. Put shortly:
as §1

In assay [3] the test system is Ipomoea hederacea (IPOHE). The description is as above. Summed up: as §1
For assay [4], the system named is Echinochloa crus-galh (ECHCG). The assay is described as above. Put shortly:
as §1

In assay [5] the test system is Setaria faberi (SETFA). Described as above. Put shortly: as §1
Assay [6] has as its system Abutilon theophrasti (ABUTH). Briefly: Pre-emergence herbicidal glasshouse test (Table B1). Summed up: as §1
In assay [7] the test system is Amaranthus retoflexus (AMARE). The assay is described as above. Put shortly:
as §1

For assay [8], the system named is Ipomoea hederacea (IPOHE). The description is as above. Summed up:
as §1

For assay [9], the system named is Echinochloa crus-galh (ECHCG). Described as above. Put shortly:
as §1

Assay [10] deals with Setaria faberi (SETFA). The description is as above. Summed up: as §1

For the compound `Cn1nnnc1NC(=O)c1ccc(OC(F)F)c(NC(=O)c2ccccn2)c1Cl` [Compound 1.108], in assay [1] (applied at 125 g/ha), the “POST Application ABUTH, percentage damage on five-point scale” value is 4 (4=60-79%). For the same compound, in [2] (applied at 125 g/ha), the “POST Application AMARE, percentage damage on five-point scale” value was 5 (5=80-100%). In addition, the “POST Application IPOHE, percentage damage on five-point scale” value in assay [3] (applied at 125 g/ha) is on record as 4 (4=60-79%). The “POST Application ECHCG, percentage damage on five-point scale” value in [4] (applied at 125 g/ha) was 5 (5=80-100%). Also, the “POST Application SETFA, percentage damage on five-point scale” value in the assay on Setaria faberi (SETFA) [5] (applied at 125 g/ha) is listed as 4 (4=60-79%). Further, in assay [6] (applied at 125 g/ha), the “PRE Application ABUTH, percentage damage on five-point scale” value (from here on “PRE Application ABUTH, percentage damage”) is on record as 4 (4=60-79%). Besides, in [7] (applied at 125 g/ha), the “PRE Application AMARE, percentage damage on five-point scale” value (from here on “PRE Application AMARE, percentage damage”) is recorded as 5 (5=80-100%). The “PRE Application IPOHE, percentage damage on five-point scale” value (from here on “PRE Application IPOHE, percentage damage”) in [8] (applied at 125 g/ha) is listed as 2 (2=20-39%). The “PRE Application ECHCG, percentage damage on five-point scale” value (from here on “PRE Application ECHCG, percentage damage”) in assay [9] (applied at 125 g/ha) was 2 (2=20-39%). Further, in the assay on Setaria faberi (SETFA) [10] (applied at 125 g/ha), the “PRE Application SETFA, percentage damage on five-point scale” value (from here on “PRE Application SETFA, percentage damage”) is listed as 3 (3=40-59%).
Turning to `CCn1nnnc1NC(=O)c1ccc(OC(F)(F)F)c(NC(=O)C2CCC2)c1Cl` [Compound 1.111], the “POST Application ABUTH, percentage damage on five-point scale” value in assay [1] (applied at 500 g/h) is 5 (5=80-100%). Also, in assay [2] (applied at 500 g/h), the “POST Application AMARE, percentage damage on five-point scale” value was 5 (5=80-100%). In addition, the “POST Application IPOHE, percentage damage on five-point scale” value in assay [3] (applied at 500 g/h) is reported as 5 (5=80-100%). Further, the “POST Application ECHCG, percentage damage on five-point scale” value in assay [4] (applied at 500 g/h) is given as 5 (5=80-100%). For the same compound, the “POST Application SETFA, percentage damage on five-point scale” value in the assay on Setaria faberi (SETFA) [5] (applied at 500 g/h) is on record as 1 (1=0-19%). The “PRE Application ABUTH, percentage damage” value in assay [6] (applied at 500 g/h) is listed as 4 (4=60-79%). For the same compound, the “PRE Application AMARE, percentage damage” value in [7] (applied at 500 g/h) is 5 (5=80-100%). In addition, the “PRE Application IPOHE, percentage damage” value in assay [8] (applied) is 1 (1=0-19%). In assay [9] (applied at 500 g/h), the “PRE Application ECHCG, percentage damage” value is listed as 4 (4=60-79%). In addition, the “PRE Application SETFA, percentage damage” value in the assay on Setaria faberi (SETFA) [10] (applied at 500 g/h) is recorded as 1 (1=0-19%).
As to `Cn1nnnc1NC(=O)c1ccc(OC(F)(F)F)c(NC(=O)C2CCC2)c1Cl` [Compound 1.112], the “POST Application ABUTH, percentage damage on five-point scale” value in assay [1] (applied at 500 g/h) was 5 (5=80-100%). Moreover, the “POST Application AMARE, percentage damage on five-point scale” value in [2] (applied at 500 g/h) was 5 (5=80-100%). For the same compound, in assay [3] (applied at 500 g/h), the “POST Application IPOHE, percentage damage on five-point scale” value was 5 (5=80-100%). Moreover, the “POST Application ECHCG, percentage damage on five-point scale” value in assay [4] (applied at 500 g/h) was 5 (5=80-100%). Also, in the assay with Setaria faberi (SETFA) [5] (applied at 500 g/h), the “POST Application SETFA, percentage damage on five-point scale” value is reported as 5 (5=80-100%). For the same compound, the “PRE Application ABUTH, percentage damage” value in [6] (applied at 500 g/h) is recorded as 4 (4=60-79%). The “PRE Application AMARE, percentage damage” value in [7] (applied at 500 g/h) is 5 (5=80-100%). In assay [8] (applied), the “PRE Application IPOHE, percentage damage” value was 1 (1=0-19%). Besides, in [9] (applied at 500 g/h), the “PRE Application ECHCG, percentage damage” value is listed as 5 (5=80-100%). Besides, the “PRE Application SETFA, percentage damage” value with Setaria faberi (SETFA) [10] (applied at 500 g/h) was 1 (1=0-19%).
With `CCn1nnnc1NC(=O)c1ccc(OC(F)(F)F)c(NC(=O)CCOC)c1Cl` [Compound 1.113], the “POST Application ABUTH, percentage damage on five-point scale” value in assay [1] (applied at 500 g/h) is recorded as 5 (5=80-100%). The “POST Application AMARE, percentage damage on five-point scale” value in assay [2] (applied at 500 g/h) is recorded as 5 (5=80-100%). The “POST Application IPOHE, percentage damage on five-point scale” value in assay [3] (applied at 500 g/h) was 5 (5=80-100%). In addition, the “POST Application ECHCG, percentage damage on five-point scale” value in [4] (applied at 500 g/h) was 5 (5=80-100%). For the same compound, the “POST Application SETFA, percentage damage on five-point scale” value in the assay with Setaria faberi (SETFA) [5] (applied at 500 g/h) is 5 (5=80-100%). Further, the “PRE Application ABUTH, percentage damage” value in [6] (applied at 500 g/h) is listed as 5 (5=80-100%). Also, in assay [7] (applied at 500 g/h), the “PRE Application AMARE, percentage damage” value is recorded as 5 (5=80-100%). For the same compound, the “PRE Application IPOHE, percentage damage” value in assay [8] (applied) is given as 1 (1=0-19%). Also, the “PRE Application ECHCG, percentage damage” value in assay [9] (applied at 500 g/h) is reported as 5 (5=80-100%). Also, in the assay on Setaria faberi (SETFA) [10] (applied at 500 g/h), the “PRE Application SETFA, percentage damage” value is listed as 2 (2=20-39%).
For `CCCC(=O)Nc1c(OC(F)(F)F)ccc(C(=O)Nc2nnnn2CC)c1Cl` [Compound 1.114], the “POST Application ABUTH, percentage damage on five-point scale” value in [1] (applied at 500 g/h) is 5 (5=80-100%). Also, the “POST Application AMARE, percentage damage on five-point scale” value in assay [2] (applied at 500 g/h) is recorded as 5 (5=80-100%). For the same compound, in assay [3] (applied at 500 g/h), the “POST Application IPOHE, percentage damage on five-point scale” value is listed as 5 (5=80-100%). For the same compound, in assay [4] (applied at 500 g/h), the “POST Application ECHCG, percentage damage on five-point scale” value is 5 (5=80-100%). Also, the “POST Application SETFA, percentage damage on five-point scale” value in the assay with Setaria faberi (SETFA) [5] (applied at 500 g/h) was 5 (5=80-100%). Moreover, the “PRE Application ABUTH, percentage damage” value in assay [6] (applied at 500 g/h) is reported as 5 (5=80-100%). In addition, the “PRE Application AMARE, percentage damage” value in assay [7] (applied at 500 g/h) was 5 (5=80-100%). The “PRE Application IPOHE, percentage damage” value in assay [8] (applied) is recorded as 3 (3=40-59%). In addition, the “PRE Application ECHCG, percentage damage” value in assay [9] (applied at 500 g/h) is on record as 5 (5=80-100%). Also, the “PRE Application SETFA, percentage damage” value in the assay on Setaria faberi (SETFA) [10] (applied at 500 g/h) is recorded as 2 (2=20-39%).
As to `Cc1nnc(NC(=O)c2ccc(OC(F)(F)F)c(NC(=O)C3CC3)c2Cl)o1` [Compound 1.115], the “POST Application ABUTH, percentage damage on five-point scale” value in [1] (applied at 125 g/ha) is on record as 4 (4=60-79%). Also, in [2] (applied at 125 g/ha), the “POST Application AMARE, percentage damage on five-point scale” value is reported as 3 (3=40-59%). The “POST Application IPOHE, percentage damage on five-point scale” value in [3] (applied at 125 g/ha) is given as 4 (4=60-79%). In assay [4] (applied at 125 g/ha), the “POST Application ECHCG, percentage damage on five-point scale” value is 4 (4=60-79%). The “POST Application SETFA, percentage damage on five-point scale” value in the assay on Setaria faberi (SETFA) [5] (applied at 125 g/ha) is listed as 4 (4=60-79%). The “PRE Application ABUTH, percentage damage” value in assay [6] (applied at 125 g/ha) is given as 4 (4=60-79%). Also, in [7] (applied at 125 g/ha), the “PRE Application AMARE, percentage damage” value is recorded as 4 (4=60-79%). Moreover, the “PRE Application IPOHE, percentage damage” value in assay [8] (applied at 125 g/ha) is 2 (2=20-39%). Further, in assay [9] (applied at 125 g/ha), the “PRE Application ECHCG, percentage damage” value is given as 5 (5=80-100%). For the same compound, the “PRE Application SETFA, percentage damage” value in the assay on Setaria faberi (SETFA) [10] (applied at 125 g/ha) is reported as 4 (4=60-79%).
